Results: patent US7462600B2, “Macrolides” (Pfizer Inc, priority 2004, dated 2008)
Converted amounts (≈) assume the structure as drawn. Where two headings read alike, the source gives them in different places.

Tests used:
Assay type in all cases: cell-based
[1] = tested on: Streptococcus pyogenes 1079; assay: MIC, microtiter broth dilution (NCCLS M100-S14), S. pyogenes 1079 (ermB)
How it was run: (§1)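 Compounds were first dissolved in DMSO (40 mg/ml stock), then tested by broth dilution in microtiter trays. MICs were interpreted using the 14th Informational Supplement (M100-S14) criteria.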

[2] = tested on: Haemophilus influenzae 1218; assay: MIC, microtiter broth dilution (NCCLS M100-S14), H. influenzae 1218 (susceptible)
How it was run: as §1

[3] = tested on: Streptococcus pneumoniae 1016; assay: MIC, microtiter broth dilution (NCCLS M100-S14), S. pneumoniae 1016 (susceptible)
How it was run: as §1

[4] = tested on: Streptococcus pneumoniae 1175; details: microtiter broth dilution
How it was run: as §1

[5] = tested on: Streptococcus pneumoniae 1095; details: microtiter broth dilution
How it was run: as §1

[6] = H. influenzae 1218 (susceptible)
[7] = S. pneumoniae 1016 (susceptible)

| Structure (SMILES) | MIC S. pyogenes 1079 ([1]; Streptococcus pyogenes 1079) | MIC H. influenzae 1218 ([2]; Haemophilus influenzae 1218) | MIC S. pneumo. 1016 ([3]; Streptococcus pneumoniae 1016) | MIC S. pneumo. 1175 ([4]; Streptococcus pneumoniae 1175) | MIC S. pneumo. 1095 ([5]; Streptococcus pneumoniae 1095) | MIC S. pyogenes 1079 ([1]; S. pyogenes 1079 (ermB)) | MIC H. influenzae 1218 [2, 6] | MIC S. pneumo. 1016 [3, 7] | MIC S. pneumo. 1175 ([4]; S. pneumoniae 1175 (mefA)) | MIC S. pneumo. 1095 ([5]; S. pneumoniae 1095 (ermB)) |
| --- | --- | --- | --- | --- | --- | --- | --- | --- | --- | --- |
| CCC1OC(=O)C(C)C(=O)C(C)C(OC2OC(C)CC(N(C)C)C2O)C(C)(OC)CC(C)C(=O)C(C)C2N(C3CN(Cc4c(OC)cnc5cccnc45)C3)C(=O)OC12C (stereo not drawn) [Example 1.101, 3-descladinosyl-11,12-dideoxy-6-O-methyl-3-oxo-12,11-(oxycarbonyl-(1-(3-methoxy-1,5-naphthyridine-4-methyl)-azetidin-3-yl)-imino)-erythromycin A] | 0.25 µg/mL (≈ 0.298 µM) | 2 µg/mL (≈ 2.38 µM) | <0.063 µg/mL | <0.063 µg/mL | 0.125 µg/mL (≈ 0.149 µM) | – | – | – | – | – |
| CC[C@H]1OC(=O)[C@H](C)C(=O)[C@H](C)[C@@H](O[C@@H]2O[C@H](C)C[C@H](N(C)C)[C@H]2O)[C@](C)(OC)C[C@@H](C)C(=O)[C@H](C)[C@H]2N(CC3(O)CN(Cc4c[nH]c5ncccc45)C3)C(=O)O[C@]12C [7.04] | – | – | – | – | – | 32 µg/mL (≈ 38.6 µM) | 0.5 µg/mL (≈ 0.604 µM) | <0.06 µg/mL | 1 µg/mL (≈ 1.21 µM) | <0.06 µg/mL |
| CCC1OC(=O)C(C)C(=O)C(C)C(OC2OC(C)CC(N(C)C)C2O)C(C)(OC)CC(C)C(=O)C(C)C2N(C3CN(Cc4cccc5nc[nH]c45)C3)C(=O)OC12C (stereo not drawn) [Example 1.11, 3-descladinosyl-11,12-dideoxy-6-O-methyl-3-oxo-12,11-(oxycarbonyl-(1-((1H-benzoimidazol-7-yl)-methy)-azetidin-3-yl)-imino)-erythromycin A] | 4 µg/mL (≈ 5.01 µM) | <0.06 µg/mL | <0.06 µg/mL | 0.5 µg/mL (≈ 0.627 µM) | <0.06 µg/mL | – | – | – | – | – |
| CCC1OC(=O)C(C)C(=O)C(C)C(OC2OC(C)CC(N(C)C)C2O)C(C)(OC)CC(C)C(=O)C(C)C2N(C3CN(S(=O)(=O)c4ccc(C)c5nccnc45)C3)C(=O)OC12C (stereo not drawn) [Example 3.114, 3-descladinosyl-11,12-dideoxy-6-O-methyl-3-oxo-12,11-(oxycarbonyl-(1-(8-methylquinoxaline-5-sulfonyl)-azetidin-3-yl)-imino)-erythromycin A] | 1 µg/mL (≈ 1.14 µM) | 0.25 µg/mL (≈ 0.286 µM) | <0.063 µg/mL | <0.063 µg/mL | 0.125 µg/mL (≈ 0.143 µM) | – | – | – | – | – |
| CCC1OC(=O)C(C)C(=O)C(C)C(OC2OC(C)CC(N(C)C)C2O)C(C)(OC)CC(C)C(=O)C(C)C2N(CC3CCN(Cc4ccno4)CC3)C(=O)OC12C (stereo not drawn) [15.09] | – | – | – | – | – | >64.00 µg/mL | 16 µg/mL (≈ 20.2 µM) | <0.06 µg/mL | 0.5 µg/mL (≈ 0.632 µM) | >64.00 µg/mL |
| CC[C@H]1OC(=O)[C@H](C)C(=O)[C@H](C)[C@@H](O[C@@H]2O[C@H](C)C[C@H](N(C)C)[C@H]2O)[C@](C)(OC)C[C@@H](C)C(=O)[C@H](C)[C@H]2N(CC3(O)CN(Cc4ccno4)C3)C(=O)O[C@]12C [7.11] | – | – | – | – | – | >64.00 µg/mL | 2 µg/mL (≈ 2.57 µM) | <0.06 µg/mL | 0.5 µg/mL (≈ 0.642 µM) | 4 µg/mL (≈ 5.14 µM) |
| CCOc1ccc2ccccc2c1CN1CC(N2C(=O)OC3(C)C(CC)OC(=O)C(C)C(=O)C(C)C(OC4OC(C)CC(N(C)C)C4O)C(C)(OC)CC(C)C(=O)C(C)C23)C1 (stereo not drawn) [Example 1.97, 3-descladinosyl-11,12-dideoxy-6-O-methyl-3-oxo-12,11-(oxycarbonyl-(1-(2-ethoxynaphthalene-1-methyl)-azetidin-3-yl)-imino)-erythromycin A] | 2 µg/mL (≈ 2.35 µM) | 0.5 µg/mL (≈ 0.587 µM) | <0.063 µg/mL | <0.063 µg/mL | <0.063 µg/mL | – | – | – | – | – |
| CCC1OC(=O)C(C)C(=O)C(C)C(OC2OC(C)CC(N(C)C)C2O)C(C)(OC)CC(C)C(=O)C(C)C2N(C3CN(Cc4c(Cl)cnc5[nH]cnc45)C3)C(=O)OC12C (stereo not drawn) [Example 1.100, 3-descladinosyl-11,12-dideoxy-6-O-methyl-3-oxo-12,11-(oxycarbonyl-(1-(6-chloro-3H-imidazo[4,5-b]pyridine-7-methyl)-azetidin-3-yl)-imino)-erythromycin A] | 0.125 µg/mL (≈ 0.15 µM) | 0.5 µg/mL (≈ 0.6 µM) | <0.063 µg/mL | <0.063 µg/mL | <0.063 µg/mL | – | – | – | – | – |
| CCC1OC(=O)C(C)C(=O)C(C)C(OC2OC(C)CC(N(C)C)C2O)C(C)(OC)CC(C)C(=O)C(C)C2N(C3CN(S(=O)(=O)c4ccc(-c5nc6ccc(C)cc6s5)cc4)C3)C(=O)OC12C (stereo not drawn) [Example 3.54, 3-descladinosyl-11,12-dideoxy-4-O-methyl-3-oxo-12,11-(oxycarbonyl-(1-(4-(6-methylbenzo[d]thiazol-2-yl)benzenesulfonyl)-azetidin-3-yl)imino)-erythromycin A] | 8 µg/mL (≈ 8.38 µM) | >64.00 µg/mL | <0.06 µg/mL | 4 µg/mL (≈ 4.19 µM) | 4 µg/mL (≈ 4.19 µM) | – | – | – | – | – |
| CCC1OC(=O)C(C)C(=O)C(C)C(OC2OC(C)CC(N(C)C)C2O)C(C)(OC)CC(C)C(=O)C(C)C2N(CC3CN(C(=O)c4ccnc5nc[nH]c45)C3)C(=O)OC12C.O=CO (stereo not drawn) [4.45] | >64.00 µg/mL | 16 µg/mL | <0.06 µg/mL | 4 µg/mL | >64.00 µg/mL | – | – | – | – | – |
| CCC1OC(=O)C(C)C(=O)C(C)C(OC2OC(C)CC(N(C)C)C2O)C(C)(OC)CC(C)C(=O)C(C)C2N(C3CN(S(=O)(=O)c4ccc(-c5cnco5)cc4)C3)C(=O)OC12C (stereo not drawn) [Example 3.13, 3-descladinosyl-11,12-dideoxy-6-O-methyl-3-oxo-12,11-(oxycarbonyl-(1-(4-(oxazol-5-yl)-benzenesulfonyl)-azetidin-3-yl)-imino)-erythromycin A] | 4 µg/mL (≈ 4.57 µM) | 0.25 µg/mL (≈ 0.286 µM) | <0.06 µg/mL | <0.06 µg/mL | 0.12 µg/mL (≈ 0.137 µM) | – | – | – | – | – |
| CCC1OC(=O)C(C)C(=O)C(C)C(OC2OC(C)CC(N(C)C)C2O)C(C)(OC)CC(C)C(=O)C(C)C2N(CC3CN(C(=O)c4ccc5cccnc5n4)C3)C(=O)OC12C.O=CO (stereo not drawn) [4.40] | >64.00 µg/mL | 4 µg/mL | <0.06 µg/mL | 0.5 µg/mL | 8 µg/mL | – | – | – | – | – |
| CCC1OC(=O)C(C)C(=O)C(C)C(OC2OC(C)CC(N(C)C)C2O)C(C)(OC)CC(C)C(=O)C(C)C2N(C3CN(S(=O)(=O)c4ccc(-c5nnco5)cc4)C3)C(=O)OC12C (stereo not drawn) [Example 3.56, 3-descladinosyl-11,12-dideoxy-6-O-methyl-3-oxo-12,11-(oxycarbonyl-(1-(4-(1,3,4-oxadiazol-2-yl)benzenesulfonyl)-azetidin-3-yl)-imino)-erythromycin A] | 0.5 µg/mL (≈ 0.571 µM) | 1 µg/mL (≈ 1.14 µM) | <0.06 µg/mL | <0.06 µg/mL | <0.06 µg/mL | – | – | – | – | – |
| CCC1OC(=O)C(C)C(=O)C(C)C(OC2OC(C)CC(N(C)C)C2O)C(C)(OC)CC(C)C(=O)C(C)C2N(CC3CCCN3C(=O)c3cnc4ccccc4n3)C(=O)OC12C.O=CO (stereo not drawn) [10.21] | – | – | – | – | – | >64.00 µg/mL | 2 µg/mL | <0.06 µg/mL | 0.12 µg/mL | <0.06 µg/mL |
| CCC1OC(=O)C(C)C(=O)C(C)C(OC2OC(C)CC(N(C)C)C2O)C(C)(OC)CC(C)C(=O)C(C)C2N(CC3CCN(Cc4ccnc5ccccc45)CC3)C(=O)OC12C (stereo not drawn) [15.02] | – | – | – | – | – | >64.00 µg/mL | 32 µg/mL (≈ 37.6 µM) | <0.06 µg/mL | 0.5 µg/mL (≈ 0.587 µM) | >64.00 µg/mL |
| CCC1OC(=O)C(C)C(=O)C(C)C(OC2OC(C)CC(N(C)C)C2O)C(C)(OC)CC(C)C(=O)C(C)C2N(C3CN(Cc4ccnc5cccnc45)C3)C(=O)OC12C (stereo not drawn) [Example 1.26, 3-descladinosyl-11,12-dideoxy-6-O-methyl-3-oxo-12,11-(oxycarbonyl-(1-((1,5-naphthyridin4-yl)-methyl)-azetidin-3-yl)-imino)-erythromycin A] | 1 µg/mL (≈ 1.23 µM) | 0.38 µg/mL (≈ 0.469 µM) | <0.06 µg/mL | <0.06 µg/mL | <0.06 µg/mL | – | – | – | – | – |
| CCC1OC(=O)C(C)C(=O)C(C)C(OC2OC(C)CC(N(C)C)C2O)C(C)(OC)CC(C)C(=O)C(C)C2N(CC3CN(Cc4nc5ccccc5[nH]4)C3)C(=O)OC12C (stereo not drawn) [4.16] | >64.00 µg/mL | 0.5 µg/mL (≈ 0.616 µM) | <0.06 µg/mL | 0.25 µg/mL (≈ 0.308 µM) | 2 µg/mL (≈ 2.46 µM) | – | – | – | – | – |
| CCC1OC(=O)C(C)C(=O)C(C)C(OC2OC(C)CC(N(C)C)C2O)C(C)(OC)CC(C)C(=O)C(C)C2N(C3CN(S(=O)(=O)c4ccc(-c5ccon5)s4)C3)C(=O)OC12C (stereo not drawn) [Example 3.33, 3-descladinosyl-11,12-dideoxy-6-O-methyl-3-oxo-12,11-(1-(oxycarbonyl-(5-(isoxazol-3-yl)thiophene-2-sulfonyl)-azetidin-3-yl)-imino)-erythromycin A] | 8 µg/mL (≈ 9.08 µM) | 0.5 µg/mL (≈ 0.567 µM) | <0.06 µg/mL | <0.06 µg/mL | <0.06 µg/mL | – | – | – | – | – |
